Measured values taken from article PMC6804997 (PLoS ONE, 2019).
pIC50: −log10 of the molar value.

Tests used:
Experiment in all cases: HDAC enzyme inhibition assay (Ac-peptide-AMC substrate)
Assay type in all cases: biochemical
HDAC4 = HDAC4 (Homo sapiens, UniProt P56524)
Procedure: (§1) HDACs inhibition assay of F7 was performed utilizing 4-amino-7-methylcoumarin (AMC) labeled Ac-peptide (Ac-peptide-AMC) substrates, a service provided by Chempartner Company (Shanghai, China).
(§2) This assay was performed was performed utilizing 4-amino-7-methylcoumarin (AMC) labeled Ac-peptide (Ac-peptide-AMC) substrates, a service provided by Chempartner Company (Shanghai, China).

HDAC6 = target: T1, HDAC6 (Homo sapiens, UniProt Q9UBN7)
T1 sequence (Q9UBN7 1-1215): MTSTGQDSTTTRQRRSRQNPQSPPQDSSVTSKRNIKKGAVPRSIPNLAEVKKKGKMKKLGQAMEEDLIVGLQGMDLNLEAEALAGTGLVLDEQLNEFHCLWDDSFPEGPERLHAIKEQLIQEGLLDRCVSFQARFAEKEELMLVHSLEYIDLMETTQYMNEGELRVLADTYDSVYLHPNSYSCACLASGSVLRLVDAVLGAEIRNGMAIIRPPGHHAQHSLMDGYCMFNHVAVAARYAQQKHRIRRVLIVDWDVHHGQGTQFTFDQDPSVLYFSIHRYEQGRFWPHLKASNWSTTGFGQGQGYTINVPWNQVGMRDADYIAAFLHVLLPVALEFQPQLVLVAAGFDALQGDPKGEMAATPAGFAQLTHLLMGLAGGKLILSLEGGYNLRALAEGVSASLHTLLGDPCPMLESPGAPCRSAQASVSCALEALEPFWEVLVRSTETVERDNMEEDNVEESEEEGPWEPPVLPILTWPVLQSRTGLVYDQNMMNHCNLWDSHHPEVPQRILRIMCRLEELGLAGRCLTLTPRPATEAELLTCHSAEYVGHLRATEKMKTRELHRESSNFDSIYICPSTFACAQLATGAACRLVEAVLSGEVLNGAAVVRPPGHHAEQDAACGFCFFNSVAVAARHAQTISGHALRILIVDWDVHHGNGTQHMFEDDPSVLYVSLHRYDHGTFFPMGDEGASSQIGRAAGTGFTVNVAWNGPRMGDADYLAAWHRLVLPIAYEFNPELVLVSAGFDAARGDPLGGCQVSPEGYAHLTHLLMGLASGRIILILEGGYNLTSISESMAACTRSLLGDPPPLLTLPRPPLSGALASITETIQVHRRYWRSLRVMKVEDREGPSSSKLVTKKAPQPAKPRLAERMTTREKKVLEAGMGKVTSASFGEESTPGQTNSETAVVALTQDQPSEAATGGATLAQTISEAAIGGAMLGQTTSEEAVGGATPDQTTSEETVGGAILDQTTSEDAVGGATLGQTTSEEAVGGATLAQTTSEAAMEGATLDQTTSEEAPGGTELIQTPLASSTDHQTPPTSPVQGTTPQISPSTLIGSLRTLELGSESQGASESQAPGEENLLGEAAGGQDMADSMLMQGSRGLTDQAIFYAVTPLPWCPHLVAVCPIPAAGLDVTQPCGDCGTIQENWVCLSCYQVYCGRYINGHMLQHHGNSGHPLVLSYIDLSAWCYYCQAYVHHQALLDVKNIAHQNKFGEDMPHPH
Procedure: as §1, §2

HDAC5 = HDAC5 (Homo sapiens, UniProt Q9UQL6)
Chain of HDAC5 (Q9UQL6 whole entry, species assumed): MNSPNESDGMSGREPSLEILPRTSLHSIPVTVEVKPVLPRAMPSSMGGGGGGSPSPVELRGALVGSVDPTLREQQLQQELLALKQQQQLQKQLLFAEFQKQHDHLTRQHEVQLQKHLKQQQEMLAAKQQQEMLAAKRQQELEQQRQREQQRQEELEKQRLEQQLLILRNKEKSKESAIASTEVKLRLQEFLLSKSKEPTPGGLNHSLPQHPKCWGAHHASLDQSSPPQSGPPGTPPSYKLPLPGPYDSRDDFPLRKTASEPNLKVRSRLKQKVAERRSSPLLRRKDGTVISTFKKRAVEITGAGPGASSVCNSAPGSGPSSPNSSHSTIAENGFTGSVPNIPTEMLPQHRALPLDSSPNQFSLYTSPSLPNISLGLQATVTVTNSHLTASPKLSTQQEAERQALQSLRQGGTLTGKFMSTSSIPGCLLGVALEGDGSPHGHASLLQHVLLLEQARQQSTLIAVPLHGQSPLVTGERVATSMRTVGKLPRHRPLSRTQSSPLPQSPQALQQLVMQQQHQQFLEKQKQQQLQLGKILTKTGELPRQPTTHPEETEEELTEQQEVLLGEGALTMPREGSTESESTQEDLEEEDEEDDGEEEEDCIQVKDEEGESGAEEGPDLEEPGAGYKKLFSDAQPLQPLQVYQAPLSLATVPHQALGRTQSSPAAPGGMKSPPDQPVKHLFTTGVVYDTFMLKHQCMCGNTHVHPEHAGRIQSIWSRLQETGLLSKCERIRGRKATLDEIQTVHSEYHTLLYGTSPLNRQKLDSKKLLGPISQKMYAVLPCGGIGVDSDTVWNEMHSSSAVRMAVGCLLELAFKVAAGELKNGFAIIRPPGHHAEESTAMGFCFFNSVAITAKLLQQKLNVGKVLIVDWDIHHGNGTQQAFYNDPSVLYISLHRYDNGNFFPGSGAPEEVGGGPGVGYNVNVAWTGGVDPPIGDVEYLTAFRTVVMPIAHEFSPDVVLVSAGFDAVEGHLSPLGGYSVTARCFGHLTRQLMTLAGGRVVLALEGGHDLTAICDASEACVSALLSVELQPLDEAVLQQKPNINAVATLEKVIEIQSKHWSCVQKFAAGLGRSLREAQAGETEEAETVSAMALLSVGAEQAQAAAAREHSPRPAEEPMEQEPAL
Procedure: as §1, §2

Chain of HDAC4 (P56524 whole entry, species assumed): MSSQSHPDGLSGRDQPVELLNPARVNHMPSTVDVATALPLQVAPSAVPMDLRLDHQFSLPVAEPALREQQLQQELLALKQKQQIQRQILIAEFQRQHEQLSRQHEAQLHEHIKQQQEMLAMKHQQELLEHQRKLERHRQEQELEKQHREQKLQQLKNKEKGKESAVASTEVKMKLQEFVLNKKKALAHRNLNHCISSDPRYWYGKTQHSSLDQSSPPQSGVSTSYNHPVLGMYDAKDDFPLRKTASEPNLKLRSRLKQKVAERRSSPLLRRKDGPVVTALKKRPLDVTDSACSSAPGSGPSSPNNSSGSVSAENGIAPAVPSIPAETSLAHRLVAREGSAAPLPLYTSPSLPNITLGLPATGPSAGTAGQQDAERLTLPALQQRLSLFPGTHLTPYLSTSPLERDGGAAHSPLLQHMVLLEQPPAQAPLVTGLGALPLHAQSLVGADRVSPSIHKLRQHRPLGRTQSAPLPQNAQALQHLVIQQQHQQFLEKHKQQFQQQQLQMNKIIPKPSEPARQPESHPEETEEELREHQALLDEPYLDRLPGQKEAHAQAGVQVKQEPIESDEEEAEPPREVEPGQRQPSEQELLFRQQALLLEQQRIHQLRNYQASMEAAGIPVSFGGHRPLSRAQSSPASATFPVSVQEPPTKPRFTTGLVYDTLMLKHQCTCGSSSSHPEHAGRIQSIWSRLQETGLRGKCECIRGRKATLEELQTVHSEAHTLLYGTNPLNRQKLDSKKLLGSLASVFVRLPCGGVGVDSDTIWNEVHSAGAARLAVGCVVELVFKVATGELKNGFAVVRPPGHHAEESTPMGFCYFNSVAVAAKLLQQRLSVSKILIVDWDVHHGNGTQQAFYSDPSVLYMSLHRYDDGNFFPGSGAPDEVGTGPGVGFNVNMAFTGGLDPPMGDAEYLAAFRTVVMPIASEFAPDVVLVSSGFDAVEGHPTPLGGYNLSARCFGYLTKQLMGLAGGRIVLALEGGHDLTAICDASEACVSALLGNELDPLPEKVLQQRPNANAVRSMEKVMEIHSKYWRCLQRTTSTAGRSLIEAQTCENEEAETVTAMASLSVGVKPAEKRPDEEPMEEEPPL

- pIC50 (HDAC4): < 5.00
- HDAC6 inhibition efficacy of F7 compared with 23BB (HDAC6): three times higher
- pIC50 (HDAC6): 8.24
- selectivity of HDAC6 versus other HDACs (HDAC6): 110-1724 times
- pIC50 (HDAC5): < 5.00
Structure (SMILES): Cc1nc(N(C)c2ccc(Oc3ccc(C(=O)NO)cn3)cc2)c2ccccc2n1 [F7, N-hydroxy-6-(4-(methyl(2-methylquinazolin-4-yl)amino)phenoxy)nicotinamide]
